This is an account of results in ChEMBL document CHEMBL4130375, “Design, synthesis and biological evaluation of 4-amidobenzimidazole acridine derivatives as dual PARP and Topo inhibitors for cancer therapy” (Eur J Med Chem, 2017).

For series [1], the system named is MCF7. As to the kind of experiment: Induction of apoptosis in human MCF7 cells assessed as early apoptotic cells at 10 uM after 48 hrs by Annexin V-FITC/propidium iodide staining based flow cytometry (reference value: 0.108%). It counts as functional.
Series [2] concerns MCF7. As to the kind of experiment: Induction of apoptosis in human MCF7 cells assessed as live cells at 10 uM after 48 hrs by Annexin V-FITC/propidium iodide staining based flow cytometry (reference value: 99.9%). It counts as functional.
In series [3] the test system is MCF7. As to the kind of experiment: Cell cycle arrest in human MCF7 cells assessed as accumulation at S phase at 1 uM after 24 hrs by propidium iodide staining based flow cytometry (reference value: 59.72 +/- 2.98%). Format: functional.
The test system of series [4] is MCF7. In words: Upregulation of p21 protein expression in human MCF7 cells after 24 hrs by Western blot method. Format: functional, cell-based.
The nature of series [5]: Intrinsic clearance in rat liver microsomes at 1.11 uM preincubated for 5 mins followed by NADPH addition by LC-MS/MS analysis. It counts as ADME, microsome. The following applies: read-out: CLH.
In series [6] the test system is MCF7. As to the kind of experiment: Downregulation of CyclinE protein expression in human MCF7 cells up to 10 uM after 24 hrs by Western blot method. Format: functional, cell-based.
Series [7] deals with MCF7. In words: Induction of apoptosis in human MCF7 cells assessed as late apoptotic cells at 1 uM after 48 hrs by Annexin V-FITC/propidium iodide staining based flow cytometry (reference value: 0%). Format: functional.
A further series deals with Cytochrome P450 2C9 (Homo sapiens, UniProt P11712). In words: Inhibition of CYP2C9 in human liver microsomes preincubated for 10 mins followed by NADPH/substrate addition measured after 20 mins by LC-MS/MS analysis.
The test system of series [8] is MCF7. In words: Downregulation of CyclinA protein expression in human MCF7 cells up to 10 uM after 24 hrs by Western blot method. It counts as functional, cell-based.
Series [9] concerns MCF7. In words: Induction of apoptosis in human MCF7 cells assessed as live cells at 1 uM after 48 hrs by Annexin V-FITC/propidium iodide staining based flow cytometry (reference value: 99.9%). Format: functional.
The subject of a further series is HCC1937. In words: Antiproliferative activity against human HCC1937 cells harboring BRCA1 mutant after 72 hrs by MTT assay. It counts as functional, cell-based. The following applies: HCC1937, 72 h.
The test system of series [10] is MCF7. In words: Downregulation of CDK2 protein expression in human MCF7 cells up to 10 uM after 24 hrs by Western blot method. Format: functional, cell-based.
Series [11] can be described thus: Half life in human liver microsomes at 1.11 uM preincubated for 5 mins followed by NADPH addition by LC-MS/MS analysis. Format: ADME, microsome.
The subject of series [12] is MCF7. In words: Induction of apoptosis in human MCF7 cells assessed as early apoptotic cells at 5 uM after 48 hrs by Annexin V-FITC/propidium iodide staining based flow cytometry (reference value: 0.108%). Format: functional.
For series [13], the system named is MCF7. As to the kind of experiment: Cell cycle arrest in human MCF7 cells assessed as accumulation at G0/G1 phase at 10 uM after 24 hrs by propidium iodide staining based flow cytometry (reference value: 17.67 +/- 1.25%). Format: functional.
In series [14] the test system is MCF7. As to the kind of experiment: Upregulation of p27 protein expression in human MCF7 cells after 24 hrs by Western blot method. It counts as functional, cell-based.
Series [15] relates to MCF7. As to the kind of experiment: Cell cycle arrest in human MCF7 cells after 24 hrs by propidium iodide staining based flow cytometry. It counts as functional.
Series [16] deals with MCF7. As to the kind of experiment: Induction of apoptosis in human MCF7 cells assessed as live cells at 5 uM after 48 hrs by Annexin V-FITC/propidium iodide staining based flow cytometry (reference value: 99.9%). Format: functional.
In the next series the target is T1, Cytochrome P450 1A2 (Homo sapiens, UniProt P05177).
T1 sequence (P05177 whole entry): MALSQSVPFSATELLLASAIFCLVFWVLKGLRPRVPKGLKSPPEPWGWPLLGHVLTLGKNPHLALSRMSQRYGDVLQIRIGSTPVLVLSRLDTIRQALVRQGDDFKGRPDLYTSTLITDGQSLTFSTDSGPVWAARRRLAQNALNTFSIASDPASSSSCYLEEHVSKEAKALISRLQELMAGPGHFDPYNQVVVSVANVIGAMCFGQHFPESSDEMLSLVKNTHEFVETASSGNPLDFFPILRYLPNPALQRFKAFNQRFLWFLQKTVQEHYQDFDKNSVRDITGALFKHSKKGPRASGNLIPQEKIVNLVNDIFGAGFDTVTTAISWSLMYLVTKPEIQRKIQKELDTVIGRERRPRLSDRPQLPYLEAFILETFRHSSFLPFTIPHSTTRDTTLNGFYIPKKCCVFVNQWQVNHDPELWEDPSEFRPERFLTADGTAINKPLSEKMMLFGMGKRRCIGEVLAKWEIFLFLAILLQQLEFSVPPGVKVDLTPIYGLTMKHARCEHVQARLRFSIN
In words: Inhibition of CYP1A2 in human liver microsomes preincubated for 10 mins followed by NADPH/substrate addition measured after 20 mins by LC-MS/MS analysis.

Another series concerns the target Cytochrome P450 2C19 (Homo sapiens, UniProt P33261). As to the kind of experiment: Inhibition of CYP2C19 in human liver microsomes preincubated for 10 mins followed by NADPH/substrate addition measured after 20 mins by LC-MS/MS analysis.
Series [17] concerns MCF7. As to the kind of experiment: Induction of apoptosis in human MCF7 cells after 48 hrs by Annexin V-FITC/propidium iodide staining based flow cytometry. It counts as functional, cell-based.
Series [18] deals with MCF7. As to the kind of experiment: Upregulation of cleaved caspase-3 protein expression in human MCF7 cells after 24 hrs by Western blot method. Format: functional, cell-based.
In a further series the target is Cytochrome P450 3A4 (Homo sapiens, UniProt P08684). As to the kind of experiment: Inhibition of CYP3A4 in human liver microsomes preincubated for 10 mins followed by NADPH/substrate addition measured after 20 mins by LC-MS/MS analysis.

Each structure is given as a SMILES string. Calls of active or inactive are those of the source. No cut-off for these calls is given here.

Cytochrome P450 3A4, sequence (P08684 whole entry): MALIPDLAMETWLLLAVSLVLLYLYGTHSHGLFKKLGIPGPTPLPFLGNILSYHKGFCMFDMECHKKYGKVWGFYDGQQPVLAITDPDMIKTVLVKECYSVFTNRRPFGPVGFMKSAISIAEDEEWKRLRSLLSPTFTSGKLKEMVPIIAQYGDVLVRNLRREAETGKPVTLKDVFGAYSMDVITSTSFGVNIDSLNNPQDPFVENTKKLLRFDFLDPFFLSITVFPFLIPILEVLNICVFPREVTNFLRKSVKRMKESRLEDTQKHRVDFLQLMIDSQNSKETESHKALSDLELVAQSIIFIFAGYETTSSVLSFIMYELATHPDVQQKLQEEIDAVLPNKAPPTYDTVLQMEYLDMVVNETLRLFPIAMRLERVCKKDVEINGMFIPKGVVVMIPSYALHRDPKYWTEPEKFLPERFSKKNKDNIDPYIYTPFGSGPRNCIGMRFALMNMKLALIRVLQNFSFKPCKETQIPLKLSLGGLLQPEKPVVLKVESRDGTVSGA
Cytochrome P450 2C9, sequence (P11712 whole entry): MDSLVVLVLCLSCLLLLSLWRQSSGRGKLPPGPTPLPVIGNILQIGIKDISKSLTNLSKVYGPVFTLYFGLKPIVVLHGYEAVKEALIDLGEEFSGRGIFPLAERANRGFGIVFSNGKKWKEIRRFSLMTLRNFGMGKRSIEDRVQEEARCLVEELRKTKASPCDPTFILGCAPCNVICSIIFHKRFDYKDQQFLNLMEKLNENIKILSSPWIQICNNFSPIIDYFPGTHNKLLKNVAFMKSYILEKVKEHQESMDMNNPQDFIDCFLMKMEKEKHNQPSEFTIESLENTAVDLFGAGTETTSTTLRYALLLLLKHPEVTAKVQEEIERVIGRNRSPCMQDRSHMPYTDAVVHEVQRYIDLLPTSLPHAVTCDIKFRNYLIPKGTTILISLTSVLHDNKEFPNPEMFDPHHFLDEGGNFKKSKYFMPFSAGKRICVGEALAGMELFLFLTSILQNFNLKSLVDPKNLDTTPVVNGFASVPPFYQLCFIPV
Cytochrome P450 2C19, sequence (P33261 whole entry): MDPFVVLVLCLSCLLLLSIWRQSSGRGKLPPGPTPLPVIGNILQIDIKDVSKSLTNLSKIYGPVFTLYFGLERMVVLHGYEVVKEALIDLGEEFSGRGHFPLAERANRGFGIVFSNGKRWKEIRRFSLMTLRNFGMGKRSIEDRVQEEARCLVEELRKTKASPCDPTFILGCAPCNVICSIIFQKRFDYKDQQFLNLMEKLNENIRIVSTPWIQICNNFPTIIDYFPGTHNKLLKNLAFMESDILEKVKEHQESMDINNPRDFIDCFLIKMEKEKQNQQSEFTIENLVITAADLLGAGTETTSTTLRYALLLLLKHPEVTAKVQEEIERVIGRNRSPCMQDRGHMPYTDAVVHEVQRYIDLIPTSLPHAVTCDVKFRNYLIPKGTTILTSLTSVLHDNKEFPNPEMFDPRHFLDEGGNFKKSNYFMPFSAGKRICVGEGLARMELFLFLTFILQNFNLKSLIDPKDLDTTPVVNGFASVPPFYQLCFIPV

Regarding `Cc1cccc2c(Nc3cccc(-c4nc5c(C(N)=O)cccc5[nH]4)c3)c3ccccc3nc12`, the Activity in the series on MCF7 [1] was 9.58%; with MCF7 [2] it was 8.18%; with MCF7 [3] it was 58.27%; in the series with MCF7 [4], “Dose-dependent effect”; in the series on MCF7 [7], 22.2%; in the series with MCF7 [9] it was 42.9%. Besides, the Activity was 23.9% in the series with MCF7 [12]; 58.27% in the series on MCF7 [13]; “Dose-dependent effect” with MCF7 [14]; “Dose-dependent effect” with MCF7 [15]; 39.1% in the series on MCF7 [16]; “Dose-dependent effect” in the series on MCF7 [17]. In addition, the Activity result in the series on MCF7 [18] is “Dose-dependent effect”. The microsomal CLint at 1.11 µM in [5] is 28.4 µL/min/mg. Further, the outcome in the series on MCF7 [6], in the series with MCF7 [8] and in the series with MCF7 [10] was Active. Also, the IC50 was 2.2 µM at Cytochrome P450 2C9; 0.83 µM in the series with HCC1937; over 10 µM on Cytochrome P450 1A2; over 10 µM against Cytochrome P450 2C19; 6.8 µM against Cytochrome P450 3A4. Further, the half-life at 1.11 µM in [11] was 27.8 min.
